Laboratory results published in ChEMBL document CHEMBL1139770, “Non-nucleoside inhibitors of the measles virus RNA-dependent RNA polymerase complex activity: Synthesis and in vitro evaluation” (Bioorg Med Chem Lett, 2007).

Key:
[1] = Cytotoxicity against Vero cells by MTT assay; format: cell-based; conditions: chlorocebus sabaeus
[2] = tested on: Measles morbillivirus; experiment: Antiviral activity against Measles virus Alaska assessed as inhibition of viral-induced cytopathicity; format: functional, organism-based
[3] = tested on: Measles morbillivirus; experiment: Antiviral activity against Measles virus Alaska assessed as virus titer reduction; format: functional
[4] = Cytotoxicity against Vero cells by Trypan blue exclusion assay; format: cell-based; conditions: chlorocebus sabaeus
[5] = Ratio of CC50 for Vero cells to IC50 for Measles virus Alaska; format: functional

EC50 [2] | Structure (SMILES) | CC50 [1] | Activity [3] | CC50 [4] | Ratio CC50/IC50 [5]
> 75 µM | Cn1nc(C(F)(F)F)cc1COc1ccc(S(=O)(=O)N2CCCC2)cc1 | > 300 µM |  |  | 
23 µM | Cn1nc(C(F)(F)F)cc1C(=O)Nc1ccc(S(=O)(=O)N2CCC[C@H]2C(=O)O)cc1 | > 300 µM |  |  | 
> 75 µM | O=C(Nc1ccc(S(=O)(=O)N2CCCC2)cc1)c1cccc(C(F)(F)F)c1 | > 300 µM |  |  | 
43 µM | Cn1nc(C(F)(F)F)cc1C(=O)Nc1ccc(S(=O)(=O)N2CCOCC2)cc1 | > 300 µM |  |  | 
> 75 µM | Cn1nc(C(F)(F)F)cc1CNc1ccc(S(=O)(=O)N2CCCC2)cc1 | > 300 µM |  |  | 
> 75 µM | Cc1nc(C(F)(F)F)ccc1C(=O)Nc1ccc(S(=O)(=O)N2CCCC2)cc1 | > 300 µM |  |  | 
> 75 µM | O=C(Nc1ccc(S(=O)(=O)N2CCCC2)cc1)c1cc(C(F)(F)F)nn1Cc1ccccc1 | 37 µM |  |  | 
> 75 µM | Cn1nc(C(F)(F)F)cc1C(=O)Nc1ccc(S(=O)(=O)N2CCCC2)cc1O | 288 µM |  |  | 
≥ 75 µM | Cn1nc(C(F)(F)F)cc1C(=O)Nc1ccc(S(=O)(=O)N2CCCC2)cc1N | > 300 µM |  |  | 
< 2.3 µM | Cn1nc(C(F)(F)F)cc1C(=O)Nc1ccc(S(=O)(=O)N2CCCCC2)cc1 | > 300 µM | 0.012 µM | 199 µM | 16500
28 µM | Cn1nc(C(F)(F)F)cc1C(=O)Nc1ccc(S(=O)(=O)N2CCNCC2)cc1 | 126 µM |  |  | 
> 75 µM | O=C(Nc1ccc(S(=O)(=O)N2CCCC2)cc1)c1ccc(C(F)(F)F)cc1[N+](=O)[O-] | > 300 µM |  |  | 
14 µM | Cn1nc(C(F)(F)F)cc1C(=O)Nc1ccc(S(=O)(=O)N2CCC[C@H]2C(=O)OCc2ccccc2)cc1 | 100 µM |  |  | 
> 75 µM | Cc1cc(C(=O)Nc2ccc(S(=O)(=O)N3CCCC3)cc2)n(C)n1 | > 300 µM |  |  | 
25 µM | Cn1nc(C(C)(C)C)cc1C(=O)Nc1ccc(S(=O)(=O)N2CCCC2)cc1 | 140 µM |  |  | 
> 75 µM | Cn1nc(C(F)(F)F)cc1C(=O)Nc1ccc(S(=O)(=O)N2CCCCC2C(=O)O)cc1 (stereo unspecified) | > 300 µM |  |  | 
15.5 µM | Cn1nc(C(F)(F)F)cc1C(=O)Cc1ccc(S(=O)(=O)N2CCCC2)cc1 | > 300 µM |  |  | 
41 µM | Cn1nc(C(F)(F)F)cc1C(O)Cc1ccc(S(=O)(=O)N2CCCC2)cc1 (stereo unspecified) | > 300 µM |  |  | 
≥ 75 µM | O=C(Nc1ccc(S(=O)(=O)N2CCCC2)cc1)c1cc(C(F)(F)F)ccc1F | 76 µM |  |  | 

More lines, now with the values behind:

Structure (SMILES) | EC50 [2] | CC50 [1] | Activity [3] | CC50 [4] | Ratio CC50/IC50 [5]
O=C(Nc1ccc(S(=O)(=O)N2CCCC2)cc1)c1ccc([N+](=O)[O-])cc1Cl | > 75 µM | > 300 µM |  |  | 
COc1ccc(Br)c(C(=O)Nc2ccc(S(=O)(=O)N3CCCC3)cc2)c1 | > 75 µM | > 300 µM |  |  | 
O=C(Nc1ccc(S(=O)(=O)N2CCCC2)cc1)c1ccc(C(F)(F)F)cc1 | 48 µM | > 300 µM |  |  | 
O=C(Nc1ccc(S(=O)(=O)N2CCCC2)cc1)c1cccs1 | > 75 µM | > 300 µM |  |  | 
O=C(Nc1ccc(S(=O)(=O)N2CCCC2)cc1)c1ccc(CCl)cc1 |  | 11 µM |  |  | 
O=C(Nc1ccc(S(=O)(=O)N2CCCC2)cc1)c1nc2ccccc2s1 | > 75 µM | > 300 µM |  |  | 
O=C(Nc1ccc(S(=O)(=O)N2CCCC2)cc1)c1ccco1 | > 75 µM | > 300 µM |  |  | 
Cn1nc(C(F)(F)F)cc1C(=O)Nc1ccc(S(=O)(=O)N2CCCC2)cc1OC(=O)c1cc(C(F)(F)F)nn1C |  | 14 µM |  |  | 
Cn1nc(C(F)(F)F)cc1C(=O)Nc1ccc(S(=O)(=O)n2ccc3ccccc32)cc1 |  | 13 µM |  |  | 
O=C(Nc1ccc(S(=O)(=O)N2CCCC2)cc1)c1ccc(F)cc1 | > 75 µM | > 300 µM |  |  | 
Cn1nc(C(F)(F)F)cc1C(=O)Nc1ccc(S(=O)(=O)N2CCCC2)cc1NC(=O)c1cc(C(F)(F)F)nn1C |  | 13 µM |  |  | 
O=C(Nc1ccc(S(=O)(=O)N2CCCC2)cc1)c1ccccc1C(F)(F)F | > 75 µM | > 300 µM |  |  | 
O=C(Nc1ccc(S(=O)(=O)N2CCCC2)cc1)c1nccn1-c1ccccc1C(F)(F)F | 65 µM | > 300 µM |  |  | 
Nc1ccc(C(=O)Nc2ccc(S(=O)(=O)N3CCCC3)cc2)c(Cl)c1 | > 75 µM | > 300 µM |  |  | 
O=C(Nc1ccc(S(=O)(=O)N2CCCC2)cc1)c1ccc(Br)cc1 |  | 59 µM |  |  | 
